Source: US20180214428A1, “3-(1H-INDOL-2-YL)-1H-PYRAZOLO[3,4-B]PYRIDINES AND THERAPEUTIC USES THEREOF” (Samumed, LLC, priority 2015, published 2018)

How the values were obtained:
[1] = tested on: Wnt activity (Sp5-Luc reporter gene, SW480 colon carcinoma cells); assay: Screening assay for Wnt activity: Sp5-Luc reporter gene assay in SW480 cells; format: cell-based, human; details: for EC50: overnight incubation; for inhibition at 10 µM: given for EC50 of >10 μM, read-out: percent inhibition at 10 μM
In short: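 SW480 cells stably transduced with a luciferase reporter driven by an Sp5 promoter of eight TCF/LEF sites were plated at 4,000 cells/well in 1% FBS medium. They were exposed overnight at 37° C to a 10-point 1:3 dilution series from 10 μM (0.1% DMSO). Luminescence was normalized to DMSO for four-parameter EC50, or percent inhibition at 10 μM.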

SW480 colon cancer cells = assay: Cell viability assay (CellTiter-Blue) in SW480 colon cancer cells; format: cell-based, human; details: for EC50: four days, CellTiter-Blue; for inhibition at 10 µM: given for EC50 of >10 μM, read-out: percent inhibition at 10 μM
In short: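 Four-day viability readout in SW480 cells: compound at 0.0045–10 μM (1:3 series), DMSO controls in eight replicates, CellTiter-Blue fluorescence after ~3 h. Values are regression-derived EC50s, or percent inhibition at 10 μM when EC50 exceeds 10 μM.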

[2] = tested on: primary human fibroblasts derived from IPF patients (LL29 cells); assay: Inhibition of the fibrotic process: αSMA staining in TGF-β1 treated LL29 fibroblasts; format: cell-based; details: for EC50: TGF-β1 20 ng/mL, 4 days, % αSMA positive cells; for inhibition at 10 µM: read-out: percent inhibition at 10 μM
In short: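 IPF patient-derived LL29 fibroblasts in 1% FBS medium got compound (11-point, 10 μM to 1.87 nM, 0.1% DMSO) plus TGF-β1 20 ng/mL, 4 days at 37° C. αSMA-positive live cells (SYTOX-excluded) were imaged, normalized to TGF-β1 controls and fitted for EC50; % inhibition at 10 μM given when EC50 >10 μM.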

[3] = Homo sapiens, Fibroblast, at 10 μM, given for EC50 of >10 μM, TGF-β1, αSMA

Structure (SMILES) | EC50 ([1]; Homo sapiens) [nM] | EC50 (SW480 colon cancer cells; Homo sapiens, 96 h) [nM] | EC50 [1] [nM] | EC50 (SW480 colon cancer cells) [nM] | EC50 ([2]; Homo sapiens, Fibroblast, 96 h) [nM] | inhibition at 10 µM (SW480 colon cancer cells; Homo sapiens) [%] | EC50 [2] [nM] | percent inhibition at 10 μM ([2]; at 10 μM, given for EC50 of >10 μM, TGF-β1, αSMA) [%] | inhibition at 10 µM ([1]; Homo sapiens) [%] | inhibition at 10 µM [2, 3] [%]
CC(C)(C)CC(=O)Nc1cncc(-c2cnc3[nH]nc(-c4cc5c(-c6ccccc6F)cccc5[nH]4)c3c2)c1 [Compound 61, N-(5-(3-(4-(2-Fluorophenyl)-1H-indol-2-yl)-1H-pyrazolo[3,4-b]pyridin-5-yl)pyridin-3-yl)-3,3-dimethylbutanamide] | 2170 | > 10000 | – | – | 4970 | 25.2 | – | – | – | –
Nc1cncc(-c2cnc3[nH]nc(-c4cc5c(-c6ccccc6F)cccc5[nH]4)c3c2)c1 [Compound 49, 5-(3-(4-(2-Fluorophenyl)-1H-indol-2-yl)-1H-pyrazolo[3,4-b]pyridin-5-yl) pyridin-3-amine] | 99 | 589 | – | – | 173 | – | – | – | – | –
Fc1cccc(-c2cccc3[nH]c(-c4n[nH]c5ncc(-c6cccnc6)cc45)cc23)c1 [Compound 2, 3-(4-(3-Fluorophenyl)-1H-indol-2-yl)-5-(pyridin-3-yl)-1H-pyrazolo[3,4-b]pyridine] | 295 | > 10000 | – | – | 1430 | 4 | – | – | – | –
O=C(Nc1cncc(-c2cnc3[nH]nc(-c4cc5c(-c6ccc(F)cc6)cccc5[nH]4)c3c2)c1)C1CCC1 [Compound 41, N-(5-(3-(4-(4-Fluorophenyl)-1H-indol-2-yl)-1H-pyrazolo[3,4-b]pyridin-5-yl)pyridin-3-yl)cyclobutanecarboxamide] | 543 | 5100 | – | – | 1160 | – | – | – | – | –
CC(C)Nc1cncc(-c2cnc3[nH]nc(-c4cc5c(-c6cccnc6)cccc5[nH]4)c3c2)c1 [Compound 81, N-Isopropyl-5-(3-(4-(pyridin-3-yl)-1H-indol-2-yl)-1H-pyrazolo[3,4-b]pyridin-5-yl)pyridin-3-amine] | 450 | 3700 | – | – | 1410 | – | – | – | – | –
CC(C)(C)C(=O)Nc1cncc(-c2cnc3[nH]nc(-c4cc5c(-c6cccnc6)cccc5[nH]4)c3c2)c1 [Compound 78, N-(5-(3-(4-(Pyridin-3-yl)-1H-indol-2-yl)-1H-pyrazolo[3,4-b]pyridin-5-yl)pyridin-3-yl)pivalamide] | 634 | 1730 | – | – | > 10000 | – | – | – | – | 24.2
CCNCc1cncc(-c2cnc3[nH]nc(-c4cc5c(-c6ccccc6F)cccc5[nH]4)c3c2)c1 [Compound 52, N-((5-(3-(4-(2-Fluorophenyl)-1H-indol-2-yl)-1H-pyrazolo[3,4-b]pyridin-5-yl)pyridin-3-yl)methyl)ethanamine] | 5840 | 2700 | – | – | 991 | – | – | – | – | –
Cc1ccncc1-c1cnc2[nH]nc(-c3cc4c(-c5ccncc5)cccc4[nH]3)c2c1 [Compound 99, 5-(4-Methylpyridin-3-yl)-3-(4-(pyridin-4-yl)-1H-indol-2-yl)-1H-pyrazolo[3,4-b]pyridine] | > 10000 | > 10000 | – | – | 2610 | 36.8 | – | – | 69.3 | –
O=C(Nc1cncc(-c2cnc3[nH]nc(-c4cc5c(-c6ccncc6)cccc5[nH]4)c3c2)c1)C1CCCCC1 [Compound 115, N-(5-(3-(4-(Pyridin-4-yl)-1H-indol-2-yl)-1H-pyrazolo[3,4-b]pyridin-5-yl)pyridin-3-yl)cyclohexanecarboxamide] | 5420 | > 10000 | – | – | 4980 | 24.3 | – | – | – | –

Continued, in another order:

EC50 ([1]; Homo sapiens) [nM] | EC50 (SW480 colon cancer cells; Homo sapiens, 96 h) [nM] | EC50 [1] [nM] | EC50 (SW480 colon cancer cells) [nM] | Structure (SMILES) | EC50 ([2]; Homo sapiens, Fibroblast, 96 h) [nM] | inhibition at 10 µM (SW480 colon cancer cells; Homo sapiens) [%] | EC50 [2] [nM] | percent inhibition at 10 μM ([2]; at 10 μM, given for EC50 of >10 μM, TGF-β1, αSMA) [%] | inhibition at 10 µM ([1]; Homo sapiens) [%] | inhibition at 10 µM [2, 3] [%]
312 | 394 | – | – | CC(C)Nc1cncc(-c2cnc3[nH]nc(-c4cc5c(-c6cc(F)cc(NCCN(C)C)c6)cccc5[nH]4)c3c2)c1 [Compound 434, N^1-(3-Fluoro-5-(2-(5-(5-(isopropylamino)pyridin-3-yl)-1H-pyrazolo[3,4-b]pyridin-3-yl)-1H-indol-4-yl)phenyl)-N^2,N^2-dimethylethane-1,2-diamine] | 1440 | – | – | – | – | –
– | – | 6070 | 4140 | CN(C)CCNc1cc(F)cc(-c2cccc3[nH]c(-c4n[nH]c5ncc(-c6ccncc6)cc45)cc23)c1 [Compound 440] | – | – | > 10000 | 0 | – | –
708 | 4140 | – | – | FC1(F)CCN(Cc2cncc(-c3cnc4[nH]nc(-c5cc6c(-c7ccncc7)cccc6[nH]5)c4c3)c2)C1 [Compound 118, 5-(5-((3,3-Difluoropyrrolidin-1-yl)methyl)pyridin-3-yl)-3-(4-(pyridin-4-yl)-1H-indol-2-yl)-1H-pyrazolo[3,4-b]pyridine] | 760 | – | – | – | – | –
> 10000 | 9070 | – | – | CN1CCN(c2cccc3[nH]c(-c4n[nH]c5ncc(-c6ccncc6)cc45)cc23)CC1 [Compound 218, 3-(4-(4-Methylpiperazin-1-yl)-1H-indol-2-yl)-5-(pyridin-4-yl)-1H-pyrazolo[3,4-b]pyridine] | 3810 | – | – | – | 7.7 | –
2020 | 9910 | – | – | c1ccc(-c2cccc3[nH]c(-c4n[nH]c5ncc(-c6cncnc6)cc45)cc23)nc1 [Compound 143, 3-(4-(Pyridin-2-yl)-1H-indol-2-yl)-5-(pyrimidin-5-yl)-1H-pyrazolo[3,4-b]pyridine] | 4960 | – | – | – | – | –
304 | 376 | – | – | CC(C)CC(=O)Nc1cncc(-c2cnc3[nH]nc(-c4cc5c(-c6cc(F)cc(NCCN(C)C)c6)cccc5[nH]4)c3c2)c1 [Compound 424, N-(5-(3-(4-(3-((2-(Dimethylamino)ethyl)amino)-5-fluorophenyl)-1H-indol-2-yl)-1H-pyrazolo[3,4-b]pyridin-5-yl)pyridin-3-yl)-3-methylbutanamide] | 350 | – | – | – | – | –
2280 | > 10000 | – | – | O=C(Nc1cncc(-c2cnc3[nH]nc(-c4cc5ccccc5[nH]4)c3c2)c1)C1CCCCC1 [Compound 249, N-(5-(3-(1H-Indol-2-yl)-1H-pyrazolo[3,4-b]pyridin-5-yl)pyridin-3-yl) cyclohexanecarboxamide] | > 10000 | 6.7 | – | – | – | 0
> 10000 | > 10000 | – | – | Fc1cccc(-c2cccc3[nH]c(-c4n[nH]c5ncc(-c6cncc(OCc7ccccc7)c6)cc45)cc23)c1 [Compound 520, 5-(5-(Benzyloxy)pyridin-3-yl)-3-(4-(3-fluorophenyl)-1H-indol-2-yl)-1H-pyrazolo[3,4-b]pyridine] | 9820 | 13.3 | – | – | 18.2 | –
> 10000 | > 10000 | – | – | Fc1ccccc1-c1cccc2[nH]c(-c3n[nH]c4ncc(C5CCNCC5)cc34)cc12 [Compound 539, 3-(4-(2-Fluorophenyl)-1H-indol-2-yl)-5-(piperidin-4-yl)-1H-pyrazolo[3,4-b]pyridine] | 5080 | 51.5 | – | – | 47.2 | –
> 10000 | 113 | – | – | FC1(F)CCN(Cc2cncc(-c3cnc4[nH]nc(-c5cc6ncccc6[nH]5)c4c3)c2)C1 [Compound 504, 5-(5-((3,3-Difluoropyrrolidin-1-yl)methyl)pyridin-3-yl)-3-(1H-pyrrolo[3,2-b]pyridin-2-yl)-1H-pyrazolo[3,4-b]pyridine] | > 10000 | – | – | – | 42.4 | 14.8
293 | 527 | – | – | CN(C)CCNc1cc(F)cc(-c2cccc3[nH]c(-c4n[nH]c5ncc(-c6cncc(N)c6)cc45)cc23)c1 [Compound 425, N^1-(3-(2-(5-(5-Aminopyridin-3-yl)-1H-pyrazolo[3,4-b]pyridin-3-yl)-1H-indol-4-yl)-5-fluorophenyl)-N^2,N^2-dimethylethane-1,2-diamine] | 332 | – | – | – | – | –
1410 | 9320 | – | – | c1ccc2[nH]c(-c3n[nH]c4ncc(-c5cncc(CN6CCCC6)c5)cc34)cc2c1 [Compound 240, 3-(1H-Indol-2-yl)-5-(5-(pyrrolidin-1-ylmethyl)pyridin-3-yl)-1H-pyrazolo[3,4-b]pyridine] | 859 | – | – | – | – | –
